Data as given in patent US6034246A, “2-arylbenzazole compounds” (Cancer Research Campaign Technology Limited, priority 1995, dated 2000).

Tests used:
[1] = test system: SDBR3; test: in vitro inhibitory activity against human breast tumour cell line SDBR3 (Table 4); format: cell-based; conditions: initial seeding density 2.5 × 10^2 cells/well
Source text: (§1) Tables 1 to 4 at the end of the present description show in vitro test results obtained in various sets of experiments for the cytotoxic activity of several of the benzazole compounds concerned, including also for reference results for the compound CJM 126 and comparative results for compound DF129, when tested against a range of tumor cell lines which includes ovarian, lung and certain colon and renal cancer cells from the National Cancer Institute (USA) collection. As usual the results are expressed in terms of IS50 values (concentration or dosage required to reduce cell growth or proliferation by 50%) calculated from dose-effect curves plotted for cultures of the cells in question.
(§2) In carrying out the in vitro studies, the cytotoxicity assays may be carried out by a method corresponding substantially to the following example: […]
(§3) On day 7 the test was terminated by the addition of 100 μl saline containing 0.002% w/v propidium iodide (Sigma), 0.3% drawing ink (Staedtler "Marsmatic 745"--Trade Mark) and 0.5% Triton X-100. The plates were kept at 4° C. overnight before reading on an inverted microscope equipped with an automated scanning stage. Fluorescence intensity was measured in arbitrary units by a photomultiplier. […]

[2] = test system: OVCAR-5; test: in vitro activity against human ovarian cell line OVCAR-5 (Table 2); format: cell-based
Source text: as §1, §2, §3

[3] = test system: MT-1; test: in vivo antitumor test, human breast carcinoma MT-1 xenotransplanted in nude mice; conditions: MT-1, optimum dose 6.25 mg/Kg/inj i.p., qd 7, 14, 21
Method: (§4) In one typical set of experiments, four human breast carcinomas xenotransplanted into female Ncr: nu/nu (Taconic, Germantown, U.S.A.) or male Bom: NMRI-nu/nu mice (Bomholtgaard, Ry, Denmark) were used for the evaluation of antitumor activity. Mice weighing 20-25 g at the start of experiments were held under sterile conditions at 24-26° C., 50% relative humidity and 12 hours light-dark rhythm in laminar flow shelves. The animals received autoclaved food and bedding; the drinking water was filtered and acidified (pH4.0).
(§5) The following breast carcinoma cell lines were used: BO; MCF-7 (NCI, U.S.A.); MT-1 and MT-3. The tumors BO and MCF-7 are ER^+ models: the carcinomas MT-1 and MT-3 are ER^- ones. Tumors were transplanted subcutaneously (s.c.) as pieces (2×2 mm) into the left flank of 5-8 nude mice/experimental group. Drug treatment was initiated when the tumors reached a diameter of 4-5 mm. […] Tumor size was measured twice weekly with a caliper. Median tumor volume/group was related to the first treatment day and expressed as Relative Tumor Volume (RTV). For the estimation of toxicity, body weight was determined twice weekly and the mean percentage body weight change (BCC) was calculated. In one experiment blood was obtained from the retroorbital venous plexus of mice and blood cells were determined with a Coulter counter (Model T41).

[4] = test system: MT-3; test: in vivo antitumor test, human breast carcinoma MT-3 xenotransplanted in nude mice; conditions: MT-3, optimum dose 12.5 mg/Kg/inj i.p., qd 7, 14, 21
Method: as §4, §5

[5] = marked * significant versus control

IC50 [2] | Compound | IC50 [1] | evaluation [3] | RTV, relative tumor volume (T/C %) [3, 5] | evaluation [4] | RTV, relative tumor volume (T/C %) [4, 5]
300 nM | Nc1ccc(-c2nc3ccccc3s2)cc1I [DF129, 2-(4'-amino-3'-iodophenyl)benzothiazole] | < 1 nM |  |  |  | 
 | Cc1cc(-c2nc3ccccc3s2)ccc1N [DF203, 2-(4'-amino-3'-methylphenyl)benzothiazole] |  | ++ (T/C = 21-35%) | 34% | ++ (T/C = 21-35%) | 22%
